Measurements reported in patent publication US20060173080A1, “Methods of modulating TNF using bupropion” (The Regents of the University of California, priority 2002, published 2006).
Entries after “also recorded” stand apart in the source; their conditions may differ. Counter-ions that a name gives are not always drawn.

Experiments:
nitric oxide = assay: Serum nitrite (Griess reaction) as indicator of nitric oxide production in LPS-challenged mice; type: in vivo, BALB/c mice; conditions: bupropion i.p. 1 h before 600 μg LPS
Description: (§1) To study the immunomodulatory effects of bupropion we used a mouse model in which TNF production is induced by stimulation with lipopolysaccharide (LPS) (Bozza et al, The PACAP-type I receptor agonist maxadilan from sand fly saliva protects mice against lethal endotoxemia by a mechanism partially dependent on IL-10, Eur. J. Immunol. 28, 3120-3127, 1998). BALB/c mice were injected intraperitoneally (i.p.) with bupropion or placebo 1 h prior to i.p. injection of LPS (600 ug/mouse).
Male, 6 weeks old BALB/c mice were used in LPS-induced shock experiments. […]
(§2) TNF, IL-1beta, IFN-gamma and IL-10 concentrations in serum samples or in supernatants from macrophage cultures were determined by enzyme-linked immunosorbent assay (ELISA) using antibody pairs and recombinant cytokines from R&D systems (Minneapolis, Minn., USA), according to the manufacturer's instructions. After incubation with streptoavidin-peroxidase conjugate (Sigma), the reaction was developed using 3,3′, 5,5′-tetramethylbenzidine (TMB) peroxidase substrate and read at 450 nm. The serum concentration of nitrite (NO2−) was determined by the Griess reaction, as an indicator of nitric oxide production (Green et al., Analysis of nitrate nitrite and [^15N] nitrite in biological fluids. Anal. Biochem 126, 131-138, 1982). […] The absorbance of the reaction product at 540 nm was measured using an ELISA reader. […]

[1] = system: platelet and leukocyte numbers in peripheral blood; assay: Platelet and leukocyte counts in peripheral blood 4 h after LPS challenge; type: in vivo, BALB/c mice; conditions: bupropion 100 mg/kg i.p. 1 h before LPS, hydrochloride
Description: FIG. 6 is a bar graph depicting normalization of platelet and leukocyte levels by bupripion treatment. Groups of BALB/c mice were injected with bupropion 100 mg/kg (Wellbutrin, Glaxo) or with placebo i.p. in saline 1 h before challenge with 600 μg of LPS (DL-100) by i.p. route. Platelet and leukocyte numbers were evaluated in peripheral blood samples collected 4 h after LPS challenge in an automated cell counter (Bayer). * P<0.05 placebo compared with normal levels; # P<0.05 bupropion compared with placebo. In a shock often platelet levels drop precipitously due to intravascular coagulation and leukocyte also fall secondary to TNF induced apoptosis. The normalization by bupropion is consistent with the other effects of bupropion in this model.
Groups of mice were injected intraperitoneally (i.p.) with a dose of 600 μg of LPS (from Escherichia coli serotype 0111 :B4, Sigma, St. Louis, Mo., USA) in saline (previously determined as LD 100) 1 h after injection of placebo or bupropion. In some experiments, groups of mice received i.p. injection of propranolol (1 mg/Kg), SCH23390 (25 μg/kg) and sulpiride (25 mg/Kg) 1 h prior to injection of bupropion. […]. To determine serum TNF, IL-1 beta and IL-10 levels, mice were sacrificed 90 min after injection of LPS and bled by axilar vein puncture. […]

IFN-gamma = assay: Serum IFN-gamma by ELISA in LPS-challenged mice; type: in vivo, BALB/c mice; conditions: bupropion 100 mg/kg i.p. 1 h before 600 μg LPS i.p., serum 4 h after LPS
Description: as §1
(§3) Male, 6 weeks old BALB/c mice were used in LPS-induced shock experiments. All mice were raised and maintained at the animal facilities at the Goncalo Moniz Research Center-FIOCRUZ, and provided with rodent diet and water ad libitum. Animal numbers in experimental groups were the minimum necessary to permit statistical analysis. All animals were sacrificed under anaesthesia. […]
as §2, with “reader. The NO2^− concentration was determined by using sodium nitrite as standard. Data were analyzed using Student's t test, one-way ANOVA or Newman-Keuls multiple comparison test, using Graph Pad Prism 3.0 software.” for “reader.”

TNF-alpha = assay: TNF level in patients with congestive heart failure before and on bupropion; type: in vivo, human; conditions: for TNF: NYSHA Class I CHF
Description: A person with NYSHA Class I CHF who started on bupropion for major depression. Their TNF before bupropion was 347 pg/ml and 5 pg/ml after two months on bupropion 150 mg twice a day (BID). […] In addition, a person with a history of two myocardial infarctions and NYSHA Class II CHF, who started on bupropion for major depression and desire to stop a 1.5 container/day chewing tobacco habit. Their TNF before starting bupropion was 433 pg/ml, and […] and then four weeks on bupropion 150 mg three times a day (TID). They subsequently stopped using tobacco and their depression is in remission. Finally, a person with NYSHA Class I CHF-TNF was 303 pg/ml before bupropion was started for depression and 7 pg/ml on 150 mg TID.

BALB/c mice = assay: LPS-induced shock model: survival and signs of endotoxemia after lethal LPS challenge; type: in vivo; conditions: for survival after lethal LPS challenge: mouse, in vivo, hydrochloride
Description: Male BALB/c mice were injected with 11, 33 or 100 mg/kg of bupropion or with placebo i.p. in saline 1 h before challenge with 600 μg of E. coli LPS (Sigma, St. Louis, Mo.) by i.p. route. Mice were sacrificed 90 min for detection of cytokines in the serum by sandwich ELISA. Values represent the means±SEM of 5 mice per group. * P<0.05.
BALB/c mice were injected intraperitoneally (i.p.) with bupropion or placebo 1 h prior to i.p. injection of LPS (600 ug/mouse).
Male, 6 weeks old BALB/c mice were used in LPS-induced shock experiments. All mice were raised and maintained at the animal facilities at the Goncalo Moniz Research Center-FIOCRUZ, and provided with rodent diet and water ad libitum. Animal numbers in experimental groups were the minimum necessary to permit statistical analysis. All animals were sacrificed under anaesthesia.
In some experiments, groups of mice received i.p. injection of propranolol (1 mg/Kg), SCH23390 (25 μg/kg) and sulpiride (25 mg/Kg) 1 h prior to injection of bupropion. […] To determine serum TNF, IL-1 beta and IL-10 levels, mice were sacrificed 90 min after injection of LPS and bled by axilar vein puncture. Levels of IFN-gamma and nitric oxide were assayed using sera of mice sacrificed 4 h after LPS injection. Platelet and leukocyte cell counts were performed using blood collected with EDTA after 4 h of LPS challenge, using an automated cell counter (ADVIA 60, Bayer).

IL-1beta = assay: Serum IL-1beta by ELISA in LPS-challenged mice; type: in vivo, BALB/c mice; conditions: bupropion 100 mg/kg i.p. 1 h before 600 μg LPS i.p., serum 90 min after LPS
Description: as §1, §3
as §2, with “reader. The NO2^− concentration was determined by using sodium nitrite as standard. Data were analyzed using Student's t test, one-way ANOVA or Newman-Keuls multiple comparison test, using Graph Pad Prism 3.0 software.” for “reader.”

[2] = listed as bupropion hydrochloride
[3] = listed as Bupropion, hydrochloride

`CC(NC(C)(C)C)C(=O)c1cccc(Cl)c1` (racemic) [bupropion, (.±.)-1-(3-chlorophenyl)-2-[(1,1-dimethylethyl)amino]-1-propanone hydrochloride] was tested, and the “nitric oxide level compared with placebo” value (nitric oxide) was “decreased with a trend toward significance”, the “production of nitric oxide, reduction compared to placebo treated mice” value (nitric oxide; serum 4 h after LPS) was “about four-fold” and the leukocyte levels [1] was “higher leukocyte levels; also recorded: normalization”. The platelet counts [1] was “significantly higher than placebo treated mice and similar to those of normal mice; also recorded: normalization”, the “serum IFN-gamma level compared with placebo” value (IFN-gamma; [2]) was “decrease” and the “serum IFN-gamma level compared with placebo” value (IFN-gamma; hydrochloride) was “significantly reduced”. The “serum IFN-gamma level compared with placebo” value (IFN-gamma; [3]) was “significantly decreased”, the “maintenance of low TNF” value (TNF-alpha; person two on bupropion) was “maintained for more than a year” and the TNF (TNF-alpha; person two, on bupropion 150 mg TID, 303 pg/ml before) was 7 pg/mL. For the same molecule, the TNF (TNF-alpha; person, after two months on bupropion 150 mg BID, 347 pg/ml before) was 5 pg/mL, the “change of TNF-alpha on bupropion” value (TNF-alpha; three patients with CHF) was “dropped profoundly” and the “signs of endotoxemia (diarrhea, immobility, lethargy, piloerection, shivering)” value (BALB/c mice; bupropion 100 mg/kg, compared with placebo) was “milder or absent”. The “survival after lethal LPS challenge” value (BALB/c mice) was “protects mice”, the “survival after lethal LPS challenge” value (BALB/c mice; [2]) was “increased survival rates” and the “survival after lethal LPS challenge” value (BALB/c mice; listed as buproprion) was “significantly increased the survival time”. The “serum IL-1beta level compared with placebo” value (IL-1beta; [2]) was “decrease”, the “serum IL-1beta level compared with placebo” value (IL-1beta; hydrochloride) was “significantly reduced” and the “serum IL-1beta level compared with placebo” value (IL-1beta; [3]) was “significantly decreased”.
